Assay results from patent US11040947B2, “Substituted quinazolines as matrix metalloproteinase-9 hemopexin domain inhibitors” (The Research Foundation for The State University of New York, priority 2017, dated 2021).

What was measured:
[1] = target: T1, MMP-9 association with CD44 and EGFR (Homo sapiens, UniProt P14780); assay: co-immunoprecipitation of endogenous CD44 and EGFR with MMP-9 in HT1080 cells; format: cell-based; settings: 50 μM overnight
T1 construct: expressed in transfected cells; host or cells: HT1080 human fibrosarcoma cells (MMP-9 transfected; CD44 and EGFR endogenous)
T1 sequence (P14780 94-707): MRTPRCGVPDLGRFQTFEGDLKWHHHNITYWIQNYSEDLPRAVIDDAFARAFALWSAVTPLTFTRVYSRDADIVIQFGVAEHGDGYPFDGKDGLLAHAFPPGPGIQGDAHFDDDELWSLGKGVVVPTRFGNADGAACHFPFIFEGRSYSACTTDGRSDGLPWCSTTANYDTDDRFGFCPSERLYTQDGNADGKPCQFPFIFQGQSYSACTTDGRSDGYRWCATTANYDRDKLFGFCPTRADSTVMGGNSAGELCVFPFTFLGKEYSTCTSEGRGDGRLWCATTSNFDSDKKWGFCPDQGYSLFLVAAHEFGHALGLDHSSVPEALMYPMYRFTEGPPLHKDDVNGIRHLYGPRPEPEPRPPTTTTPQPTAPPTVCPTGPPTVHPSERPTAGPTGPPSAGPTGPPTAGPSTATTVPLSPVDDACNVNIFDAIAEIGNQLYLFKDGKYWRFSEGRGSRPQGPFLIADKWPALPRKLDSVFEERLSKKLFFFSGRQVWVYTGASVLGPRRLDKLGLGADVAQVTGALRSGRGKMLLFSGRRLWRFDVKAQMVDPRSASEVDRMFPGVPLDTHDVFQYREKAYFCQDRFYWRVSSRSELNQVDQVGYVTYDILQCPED

HT1080 cells [2] = assay: chorioallantoic membrane (CAM) assay, angiogenesis; format: in vivo, chicken embryo; settings: 100 μM stock solution (final estimated 0.5 μM), 4-day incubation, vs DMSO and 1f
Procedure: A CAM assay was carried out to evaluate angiogenic and invasive potential of HT1080 cells after treatment with 3c. […] After a 4-day incubation, neovascularization was imaged and quantified.

[3] = system: FAK and PAX adhesion junctions in HT1080 cells; assay: focal adhesion complexes, immunofluorescence in HT1080 cells; format: cell-based, Human
[4] = system: EGFR^Tyr1068, AKT^Ser473, Erk1/2^Thr202/Tyr204 phosphorylation; assay: phosphorylation of EGFR and downstream targets in HT1080 cells; format: cell-based, Human; settings: 50 μM overnight
[5] = system: HT1080 cells stably expressing GFP; assay: chorioallantoic membrane (CAM) assay, invasion; format: in vivo, chicken embryo; settings: 100 μM stock solution (final estimated 0.5 μM), vs DMSO or 1f
Procedure: HT1080 cells stably expressing GFP were mixed with a type I collagen solution (3 mg/mL) and seeded atop the CAM to ensure the cells localized to a specific area. […] The invasion of cancer cells through the epithelium and basement membrane of the upper CAM into connecting tissue was examined by hematoxylin and eosin staining in addition to fluorescence microscopy for GFP^+ cells.

[6] = system: Src^Tyr418, FAK^Tyr576/577, PAX^Tyr118 phosphorylation; assay: phosphorylation of Src and downstream targets in HT1080 cells; format: cell-based, Human; settings: 50 μM
Procedure: (§1) HT1080 cells transiently co-transfected with tagged MMP-9 cDNAs were prepared as described above.

[7] = system: proMMP-2-mediated migration of COS-1 cells; assay: two-dimensional dot migration assay, COS-1 cells stably expressing proMMP-2; format: cell-based
Procedure: (§2) To test whether compound 3c is specific for inhibiting only proMMP9-mediated migration, a two-dimensional dot migration assay was performed using COS-1 cells engineered to stably express vector control pQCXIP, proMMP-2, proMMP-9, or proMMP-14 cDNA vectors. An immunoblot was performed to confirm protein expression and proper localization of each MMP (MMP-2/-9 are secreted while MMP-14 is membrane bound).

[8] = system: proMMP9-mediated migration of COS-1 cells; assay: two-dimensional collagen dot migration assay, COS-1 cells overexpressing proMMP-9; format: cell-based; settings: for inhibition at 50 µM: Chlorocebus aethiops
Procedure: This assay was initially used to test the efficacy of analogs at a single concentration, 50 μM.
Cells were mixed with type I collagen solution with or without compound, dotted onto a 96-well plate, and allowed to migrate for 18 hours. They were then fixed, stained and scored for extent of migration.

HT1080 cells [9] = assay: cell adhesion to collagen or fibronectin coated plate; format: cell-based, Human; settings: 37° C. 30 min
Procedure: A 96-well plate was coated with a thin layer of either collagen or fibronectin (5 μg/ml in PBS) substrate before use. HT1080 cells were then seeded onto wells and incubated at 37° C. for 30 min in the presence of various inhibitors. Wells were washed and cells were fixed in 4% paraformaldehyde and stained with DAPI. Images of each 96-well were microscopically captured and counted for the number of cells still adherent to the coated surface using automated computer software.

[10] = system: MMP-9 at the cell surface of HT1080 cells; assay: MMP-9 cell surface localization, immunofluorescence in HT1080 cells; format: cell-based, Human
Procedure: HT1080 cells were fixed in 4% paraformaldehyde then subsequently incubated with anti-MMP-9 in addition to anti-α4 and/or β1 integrin antibodies to monitor relative levels of localization of these proteins at the cell surface. The cells were counterstained with DAPI nuclear dye.

[11] = target: T2, MMP-9 interaction with α4/β1 integrin (Homo sapiens, UniProt P14780); assay: co-immunoprecipitation of endogenous integrin with MMP-9 in HT1080 cells; format: cell-based; settings: 50 μM
T2 construct: expressed in transfected cells; host or cells: HT1080 cells (MMP-9 transfected; integrin endogenous)
T2 sequence (P14780 94-707): as above
Procedure: as §1

[12] = system: proMMP-14-mediated migration of COS-1 cells; assay: two-dimensional dot migration assay, COS-1 cells stably expressing proMMP-14; format: cell-based
Procedure: as §2

[13] = target: T3, APMA-activated recombinant proMMP-9 (Homo sapiens, UniProt P14780); assay: MMP-9 catalytic activity with fluorogenic peptide; format: biochemical; settings: 10 μM fluorogenic peptide, monitored over 2 hours
T3 construct: made in house
T3 sequence (P14780 107-707 limits assumed): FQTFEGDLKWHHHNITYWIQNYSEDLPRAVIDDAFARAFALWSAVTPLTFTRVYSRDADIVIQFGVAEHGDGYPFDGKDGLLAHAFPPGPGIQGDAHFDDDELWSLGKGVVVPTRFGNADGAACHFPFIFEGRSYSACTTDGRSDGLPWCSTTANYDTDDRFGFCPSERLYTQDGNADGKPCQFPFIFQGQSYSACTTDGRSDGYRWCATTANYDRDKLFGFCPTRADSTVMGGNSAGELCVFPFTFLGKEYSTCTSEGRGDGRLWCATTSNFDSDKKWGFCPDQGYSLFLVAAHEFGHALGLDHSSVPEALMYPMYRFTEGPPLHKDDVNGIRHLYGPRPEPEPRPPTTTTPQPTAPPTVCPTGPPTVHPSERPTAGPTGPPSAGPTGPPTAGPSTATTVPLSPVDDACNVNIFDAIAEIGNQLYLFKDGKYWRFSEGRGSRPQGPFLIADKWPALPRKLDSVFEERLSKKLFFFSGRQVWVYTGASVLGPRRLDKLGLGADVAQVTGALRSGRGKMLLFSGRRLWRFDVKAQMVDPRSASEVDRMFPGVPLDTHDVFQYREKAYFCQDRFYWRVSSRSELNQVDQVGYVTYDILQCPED
Procedure: Recombinant proMMP-9 protein was purified and incubated overnight in a 37° C. water bath in TNC buffer+1 mM APMA to artificially activate the protein.

[14] = system: proMMP9-mediated migration of COS-1 cells; assay: two-dimensional dot migration assay, COS-1 cells stably expressing proMMP-9; format: cell-based
Procedure: as §2

proMMP-9 = target: T4, proMMP-9 (Homo sapiens, UniProt P14780); assay: proMMP-9 tryptophan fluorescence blue shift binding assay; settings: binding to proMMP-9, tryptophan fluorescence
T4 construct: Purified recombinant MMP-9 (50 nmol/L) or MMP-9/MMP-2PEX (50 nmol/L) was diluted in buffer
T4 sequence (P14780 20-707 limits assumed): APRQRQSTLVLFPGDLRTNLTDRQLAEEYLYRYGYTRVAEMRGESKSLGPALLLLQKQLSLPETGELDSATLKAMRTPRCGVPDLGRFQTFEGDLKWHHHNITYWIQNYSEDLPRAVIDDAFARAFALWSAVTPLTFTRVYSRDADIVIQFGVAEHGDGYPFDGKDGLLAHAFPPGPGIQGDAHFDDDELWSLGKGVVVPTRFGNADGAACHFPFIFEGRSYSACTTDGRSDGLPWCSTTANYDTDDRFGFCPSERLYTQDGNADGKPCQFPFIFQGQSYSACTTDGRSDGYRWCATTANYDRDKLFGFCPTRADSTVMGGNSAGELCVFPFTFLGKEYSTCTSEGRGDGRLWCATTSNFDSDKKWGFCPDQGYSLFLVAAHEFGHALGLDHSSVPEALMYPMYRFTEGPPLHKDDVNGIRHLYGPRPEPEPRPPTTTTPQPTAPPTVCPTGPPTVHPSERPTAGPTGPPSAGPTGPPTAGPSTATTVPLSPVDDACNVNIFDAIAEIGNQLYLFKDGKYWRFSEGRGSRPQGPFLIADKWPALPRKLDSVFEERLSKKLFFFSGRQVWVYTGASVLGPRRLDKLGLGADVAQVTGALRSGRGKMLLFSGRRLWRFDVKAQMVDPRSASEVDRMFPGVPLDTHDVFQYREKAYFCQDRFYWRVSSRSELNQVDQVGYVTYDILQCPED
Procedure: A blue shift in proMMP-9 tryptophan fluorescence was monitored to determine the binding affinity of all compounds. Binding of a test compound to MMP-9 was assayed by observing the change of tryptophan emission upon binding. Purified recombinant MMP-9 (50 nmol/L) or MMP-9/MMP-2PEX (50 nmol/L) was diluted in buffer (50 mmol/L Tris-HCl, 60 mmol/L KCl, and 0.05% Tween 20, pH 7.4) in the presence or absence of the test compound. As a control for protein stability and loss, an analogous buffer solution was added to the protein. The protein sample was excited at 280 nm and emission scans were collected from 290 to 400 nm, using slit widths of 0.3 nm on a QM 4/200SE spectrofluorimeter with double excitation and emission monochromators. Three emission scans were collected and averaged at each concentration. The Kd was determined using the Prism software package (GraphPad V5) to fit the data to Equation (Δ). λmax=(λmax^∞×[2])/(Kd+[2]) (A) in which λmax is the wavelength at which maximal fluorescence of the protein was observed.

[15] = system: COS-1 cells stably expressing vector control or proMMP-9; assay: acute cytotoxicity in COS-1 cells; format: cell-based; settings: 100 nM staurosporine (positive control), 24 hours
Procedure: Compound 3c was evaluated for acute cytotoxicity. COS-1 cells stably expressing either vector control or proMMP-9 cDNA were treated with 50 μM 3c for 24 hours. As negative and positive controls, cells were treated with DMSO alone or 100 nM staurosporine (STS), an apoptosis inducer, respectively. […] A non-statistically significant 8% decrease in cell growth occurred after treatment with 50 μM of compound 3c. These experiments were repeated in endogenous MMP-9 expressing HT1080 fibrosarcoma cells, which were analyzed for chronic toxicity (cells were re-treated every three days for a total of nine days).

SMILES | Kd (proMMP-9) [nM] | melting point | inhibition at 50 µM ([8]; 50 μM, 18 hours) [%] | further results
CCCc1cc(=O)nc(SCC(=O)Nc2ccc(OC(F)F)cc2)[nH]1 [Compound 1a, N-(4-Difluoromethoxyphenyl)-2-(4-oxo-6-propyl-1,4-dihydropyrimidin-2-ylthio)acetamide] |  |  |  | endogenous CD44 and EGFR co-immunoprecipitation [1]: reduced endogenous CD44 and EGFR co-immunoprecipitation; angiogenic potential of HT1080 cells (neovascularization) (HT1080 cells [2]): significantly reduced the angiogenic potential of HT1080 cells; formation of FAK and PAX adhesion junctions ([3]; 50 μM overnight): A decrease in the formation of FAK and PAX adhesion junctions; phosphorylation of EGFR^Tyr1068 and downstream targets AKT^Ser473 and Erk1/2^Thr202/Tyr204 [4]: reduced phosphorylation; invasion of CAM tissue [5]: reduced invasion of CAM tissue; Src^Tyr418 phosphorylation and phosphorylation of FAK^Tyr576/577 and PAX^Tyr118 [6]: reduced Src^Tyr418 phosphorylation; inhibition of proMMP-2-mediated migration [7]: only inhibited proMMP9-mediated migration; inhibitor effectiveness at concentrations above 50 μM ([8]; above 50 μM): did not increase inhibitor effectiveness; cellular adhesion (HT1080 cells [9]): inhibited cellular adhesion; localization of MMP-9 on the cell surface [10]: loss of MMP-9 from the cell surface; endogenous α4β1 integrin co-immunoprecipitation [11]: reduced endogenous α4β3 integrin co-immunoprecipitation; inhibition of proMMP-14-mediated migration [12]: only inhibited proMMP9-mediated migration; inhibition of MMP-9 catalytic activity [13]: No inhibition of the catalytic activity was observed; inhibition of proMMP-9-mediated migration [14]: only inhibited proMMP9-mediated migration
CCCc1cc(=O)nc(SCC(=O)Nc2ccccc2)[nH]1 [Compound 1b, 2-(4-Oxo-6-propyl-1,4-dihydropyrimidin-2-ylthio)-N-phenylacetamide] | 4500 ± 600 | 170 °C (dec.) | 12 ± 3 | 
CCCc1cc(=O)nc(SCC(=O)Nc2ccc(F)cc2)[nH]1 [Compound 1c, N-(4-Fluorophenyl)-2-(4-oxo-6-propyl-1,4-dihydropyrimidin-2-ylthio)acetamide] | 3800 ± 600 | 191 to 194 °C | 29 ± 4 | 
CCCc1cc(=O)nc(SCC(=O)Nc2nc3ccccc3[nH]2)[nH]1 [Compound 1d, N-(1H-benzo[d]imidazol-2-yl)-2-(4-oxo-6-propyl-1,4-dihydropyrimidin-2-ylthio)acetamide] | 1200 ± 200 | 217 °C (dec.) | 61 ± 2 | 
CCCc1cc(=O)nc(SCC(=O)N(C)c2ccccc2)[nH]1 [Compound 1f, 2-(4-Oxo-6-propyl-1,4-dihydropyrimidin-2-ylthio)-N(methyl)-phenylacetamide, reference compound] |  |  |  | % Inhibition of proMMP9-Mediated Migration at 50 μM ([8]; 50 μM, 18 hours): 2 ± 6%; cellular adhesion (HT1080 cells [9]): no affect on cell adhesion; localization of MMP-9 on the cell surface [10]: did not disrupt the localization of MMP-9 on the cell surface
CCCc1cc(=O)nc(SCCCC(=O)Nc2ccc(OC(F)F)cc2)[nH]1 [Compound 2a, N-(4-Difluoromethoxyphenyl)-4-(4-oxo-6-propyl-1,4-dihydropyrimidin-2-ylthio)butanamide] | 1000 ± 200 |  | 63 ± 4 | 
CCCc1cc(=O)nc(SCCCC(=O)Nc2ccc(F)cc2)[nH]1 [Compound 2c, N-(4-Fluorophenyl)-4-(4-oxo-6-propyl-1,4-dihydropyrimidin-2-ylthio)butanamide] | 910 ± 100 | 180 to 182 °C | 68 ± 3 | 
O=C(CCCSc1nc2c(c(=O)[nH]1)CCCC2)Nc1ccc(OC(F)F)cc1 [Compound 3a, N-(4-Difluoromethoxyphenyl)-4-(4-oxo-3,4,5,6,7,8-hexahydroquinazolin-2-ylthio)butanamide] | 600 ± 100 | 197 to 198 °C | 74 ± 2 | 
O=C(CCCSc1nc2c(c(=O)[nH]1)CCCC2)Nc1ccccc1 [Compound 3b, 4-(4-Oxo-3,4,5,6,7,8-hexahydroquinazolin-2-ylthio)-N-phenylbutanamide] | 500 ± 100 |  | 76 ± 1 | 
O=C(CCCSc1nc2c(c(=O)[nH]1)CCCC2)Nc1nc2ccccc2[nH]1 [Compound 3d, N-(1H-Benzo[d]imidazol-2-yl)-4-(4-oxo-3,4,5,6,7,8-hexahydroquinazolin-2-ylthio)butanamide] | 500 ± 200 | > 230 °C | 77 ± 2 | 
O=C(CCCSc1nc2ccccc2c(=O)[nH]1)Nc1ccc(OC(F)F)cc1 [Compound 4a, N-(4-(Difluoromethoxy)phenyl)-4-(4-oxo-3,4-dihydroquinazolin-2-ylthio)butanamide] | 500 ± 100 | 210 to 211 °C | 78 ± 3 | 
O=C(CCCSc1nc2ccccc2c(=O)[nH]1)Nc1ccccc1 [Compound 4b, 4-(4-Oxo-3,4-dihydroquinazolin-2-ylthio)-N-phenylbutanamide] | 800 ± 100 |  | 64 ± 4 | 
O=C(CCCSc1nc2ccccc2c(=O)[nH]1)Nc1ccc(F)cc1 [Compound 4c, N-(4-Fluorophenyl)-4-((4-oxo-3,4-dihydroquinazolin-2-yl)thio)butanamide] | 640 ± 60 | 216 to 217 °C | 73 ± 2 | 
O=C(CCCSc1nc2ccccc2c(=O)[nH]1)Nc1nc2ccccc2[nH]1 [Compound 4d, N-(1H-Benzo[d]imidazol-2-yl)-4-(4-oxo-3,4-dihydroquinazolin-2-ylthio)butanamide] | 300 ± 100 | > 230 °C | 81 ± 3 | 
CCCCCCNC(=O)CCCSc1nc2ccccc2c(=O)[nH]1 [Compound 4e, N-Hexyl-4-(4-oxo-3,4-dihydroquinazolin-2-ylthio)butanamide] | 900 ± 300 |  | 56 ± 1 | 
CN[C@@H]1C[C@H]2O[C@@](C)([C@@H]1OC)n1c3ccccc3c3c4c(c5c6ccccc6n2c5c31)C(=O)NC4 [STS, staurosporine, reference compound] |  |  |  | cell death [15]: Significant cell death
CNC(=O)[C@@H](NC(=O)[C@H](CC(C)C)[C@H](O)C(=O)NO)C(C)(C)C [marimastat, reference compound] |  |  |  | formation of focal adhesion contact sites ([3]; 80 nM, p-FAK and p-PAX): did not prevent the formation of focal adhesion contact sites; cellular adhesion (HT1080 cells [9]): no observable effect on cell attachment; inhibition of MMP-9 catalytic activity [13]: no substrate cleavage was observed
